{
  "source": "paper PMC3668706",
  "about": "“Highly Divergent T-cell Receptor Binding Modes Underlie Specific Recognition of a Bulged Viral Peptide bound to a Human Leukocyte Antigen Class I Molecule” (The Journal of Biological Chemistry, 2013)",
  "key": {"[1]": {"tested_on": "SB47 CTL clone", "test": "Intracellular IFN-γ staining, SB47 CTL clone with LPEP-pulsed T2 cells", "type": "cell-based, human", "conditions": "IFNγ intracellular staining, peptide-pulsed T2 cells, 4 h; performed twice", "experimental": "Data were analyzed with FlowJo software (Tree Star)."}, "[2]": {"tested_on": "CA5 CTL clone", "conditions": "IFNγ intracellular staining, peptide-pulsed T2 cells, 4 h; performed twice", "quoted_text": "CTL clones were tested against a range of antigen-presenting cells and assayed for intracellular expression of IFN-γ by flow cytometry using the BD Cytofix/Cytoperm kit (BD Biosciences) according to standard protocols. Briefly, clones were incubated with antigen-presenting cells at a stimulator to responder ratio of 1:2 for 4 h in the presence of brefeldin A (BioLegend). For peptide titration experiments, T2 cells were incubated with various concentrations of LPEP peptide for 1 h and then washed thoroughly prior to incubation with CTL clones. After stimulation, cells were stained with Live/Dead Fixable Aqua Dead Cell Stain (Invitrogen) and anti-CD8-Cy5.5-PerCP mAb (BioLegend) for 30 min at 4 °C. Cells were then washed, fixed, permeabilized, and labeled with anti-IFN-γ-antigen-presenting cell mAb (BioLegend) for 30 min at 4 °C. After a further wash, samples were collected using a FACSCanto II flow cytometer (BD Biosciences). Data were analyzed with FlowJo software (Tree Star). Lymphocytes were identified based on light scatter, then live CD8^+ T-cells were selected and IFN-γ^+ gates were drawn based on unstimulated controls."}},
  "data": [
    {"sequence": "LPEPLPQGQLTAY [LPEP peptide]", "values": [
      {"measurement": "recognition of LPEP presented by HLA-B*35:08 versus HLA-B*35:01 by SB47 CTL clone", "setting": "[1]", "result": "equally well"},
      {"measurement": "recognition of LPEP presented by HLA-B*35:08 versus HLA-B*35:01 by CA5 CTL clone", "setting": "[2]", "result": "preferentially recognized HLA-B*35:08^LPEP when the peptide was limited"}
    ]}
  ]
}
